Reference: patent publication US20240299405A1, “APPLICATION OF ATP POTASSIUM CHANNEL MODIFIER IN PREPARATION OF ANTI-DIABETIC NEPHROPATHY DRUG” (HANGZHOU QIAN BIOTECHNOLOGY LTD, priority 2020, published 2024)

Tests used:
[1] = tested on: STZ diabetic rat models (diabetic nephropathy); assay: Urine microalbumin (mALB) by ELISA in STZ plus high-fat diet diabetic nephropathy rat model; format: in vivo, SD rats; conditions: for mALB, urine microalbumin value of each KATP agonist: week 30, mean ± SE; for effect on reducing the amount of microalbumin in diabetic nephropathy urine compared with the negative control group: week 30, p<0.05; for mALB, 20 Week: week 20, mean ± SE; for mALB, 24 Week: week 24, mean ± SE; for mALB, 26 Week: week 26, mean ± SE; for mALB, 32 Week: week 32, mean ± SE; for mALB, 35 Week: week 35, mean ± SE
Source text: STZ substantially and excessively damages islet-β cells through chemical toxicity (Saini K, Thompson C, Winterford C M, Walker N I, Cameron D P. Streptozotocin at low doses induces apoptosis and at high doses causes necrosis in a murine pancreatic b cell line, INS1[J]. International Union of Biochemistry and Molecular Biology Life. 1996, 39(6): 1229-1236). The pathophysiological characteristics of STZ modeled rats are relatively close to that of humans. Their blood can be collected repeatedly to monitor index changes and enough kidney tissues can be obtained for subsequent tissue section analysis. Therefore, STZ diabetic rat models are used. In addition, due to the high toxicity of STZ, multiple injections at low doses can establish better models. Keep feeding a high-fat diet daily after modeling until the end of the experiment. A high-fat diet can cause diabetic nephropathy in STZ rats.
Urine microalbumin (mALB) is an early diagnostic index of kidney injury, and mALB was used as an indicator to test whether rats entered diabetic nephropathy, and rat weight and blood glucose levels were used to observe whether the model was successful.
mALB is one of the most important monitoring indicators of nephropathy. […] Since the measurement results of mALB in humans and mice are different. The difference between the dosing group (group C) and the negative control group (group B) is used to judge whether the test results of this experiment are valid. The normal mALB value in this experiment was only used as a reference value, which is using the data of group A (blank control group).
At the beginning of the experiment, urine and blood of all rats were collected for the detection of the required indicators, and the initial indicators were used as a timely reference for the disease progression of the rats. After the start of the experiment, all rats were sampled with the Elisa kit every other month to detect mALB and other data.
Rat urine collection: urine is collected by metabolic cage, urine is collected after 24 h, the total amount of urine is recorded, and the urine output at 24 h is calculated. Take 1 ml of urine, centrifuge and take the supernatant and store at −80° C. for testing.
A 24 h urine sample was collected from rats for testing, and the collected sample was centrifuged at 15 min, centrifuged at 4° C. at 1000 ref for 20 min, and the mALB value was detected by supernatant or stored at −20° C.
Before starting the experiment, you need to do the following: • (1) Place all reagents (including specimens) in the room and equilibrate to room temperature (18-25° C.) before use. • (2) The standard is diluted to the corresponding gradient. Take a bottle of standard, add 1 mL of standard diluent (at this time the concentration is 1000 μg/mL), mix gently, let stand at room temperature for 10 minutes, and gently shake every 2 minutes to mix. After mixing, dilute it to 100 μg/mL, take 4 EP tubes (add 600 μL of standard dilute to each EP tube), triple dilute the standard from a concentration of 100 μg/mL to 33.33 μg/mL, 11.11 μg/mL, 3.70 μg/mL, 1.23 μg/mL, and use the standard dilution as a blank well (0 μg/mL). • (3) Working solution of the detection solution A: add 150 μL of reagent dilution to the mother liquor of the detection solution A, stand at room temperature for 10 minutes, and shake gently every 2 minutes to have a well-mix. Before use, dilute with the detection diluent A at 1:100, and mix the solution well with the shaker. Calculate the required amount at 50 μL/well for dilution before use (0.1-0.2 mL more needs to be prepared). • (4) Working solution of the detection solution B: Detection solution B needs to be centrifuged at 5000 ref for 10 s before each use to deposition the liquid from the tube wall or cap to the bottom of the tube. Immediately before use, dilute with the detection diluent B at 1:100, and mix them well with the shaker. […]

STZ diabetic rats [2] = assay: Glomerular filtration rate in STZ diabetic rats; format: in vivo, SD rats; conditions: groups C and D (0.5 and 5 mg/kg) versus group B
Protocol: (§1) Due to the large body surface area of rats, the doses of groups C, D and E were equivalent to 0.095 mg/kg, 0.95 mg/kg, and 9.5 mg/kg in humans (according to the literature: Anroop B Nair, Shery Jacob. A simple practice guide for dose conversion between animals and human. Journal of Basic and Clinical Pharmacy. 2016, 7(2):27-31.), with 95% binding capacity to albumin, similar to humans. All groups of rats were fed high-fat feed.

rat kidney = assay: HE staining of rat kidney sections (glomeruli, tubules); format: in vivo, SD rats; conditions: 5 mg/kg (medium-dose) group, six-month rat, renal HE×400
Source text: In addition, clinically patients with nephropathy will have an increase in glomerular volume and a higher number of cells in the early stage, and with the progression of the disease, there will be widening of the mesangial area, the mesangial cells and mesangial stroma will increase, and the tubular epithelial cells will have cell edema, that is, often called granular degeneration or vacuolar degeneration, tubulointerstitial fibrosis and other symptoms. In this experiment, the glomerular volume changes of rat kidney sections were observed by HE staining, and the results of renal staining sections in each experimental group are shown in FIG. 5.

STZ diabetic rats [3] = conditions: rat, in vivo, 50 mg/kg/day
Protocol: as §1
In addition, rats in the high-dose E group all died before diabetic nephropathy was modeled, of which 13 died in the first four months and the other 5 died in the fifth and sixth months. It was speculated that the death may be related to the high blood glucose elevation of diabetic rats. Therefore, the statistics of Table 1, FIG. 1, FIG. 2, FIG. 3 and FIG. 5 are not included those rats in group E.

[4] = group C, 0.5 mg/kg per day gavage
[5] = group D, 5 mg/kg per day gavage

With CC1(C)Oc2ccc(C#N)cc2C(N2CCCC2=O)C1O (centres unmarked) [Cromakalim] the “mALB, urine microalbumin value of each KATP agonist” value (from here on “mALB, urine microalbumin value”) ([1]; 1 mg/kg group) was 77.6 ± 45.6 µg/mL and the “effect on reducing the amount of microalbumin in diabetic nephropathy urine compared with the negative control group” value (“effect on reducing the amount” for short) [1] was “significant effect”.
With C/N=C(/S)[C@]1(c2cccnc2)CCCC[S@@+]1[O-] [Aprikalim] the “mALB, urine microalbumin value” value ([1]; 1 mg/kg group) was 59.7 ± 25.4 µg/mL and the “effect on reducing the amount” value [1] was “significant effect”.
CC(N/C(=N\C#N)Nc1ccncc1)C(C)(C)C (centres unmarked) [Pinacidil] was tested, and the “mALB, urine microalbumin value” value ([1]; 1 mg/kg group) was 99.7 ± 50.7 µg/mL and the “effect on reducing the amount” value [1] was “significant effect”.
CC1=Nc2ccc(Cl)cc2S(=O)(=O)N1 [Diazoxide, 7-chloro-3-methyl-2-hydro-1,2,4-benzothiadiazine 1,1-dioxide] was tested, and the “effect on the increase of compensatory glomerular filtration rate” value (STZ diabetic rats [2]) was “could reduce the increase of glomerular filtration rate”, the “kidney histology, HE staining” value (rat kidney) was “some glomeruli significantly increased in size” and the “kidney histology, HE staining” value (rat kidney; listed as diazoxide) was “tubular vacuolar degeneration”. The “progression of diabetic nephropathy” value ([1]; 0.5 mg/kg) was “can delay the progression of diabetic nephropathy”, the “mALB, 20 Week” value [1, 4] was 15.6 ± 2.9 µg/mL and the “mALB, 24 Week” value ([1]; group C, 0.5 mg/kg per day gavage, 0.5 mg/kg/day) was 18.2 ± 4.7 µg/mL. The “mALB, 26 Week” value [1, 4] was 28.4 ± 10.8 µg/mL, the “mALB, 32 Week” value [1, 4] was 149.5 ± 50.3 µg/mL and the “mALB, 35 Week” value [1, 4] was 108.0 ± 33.7 µg/mL. For the same molecule, the “mALB, 20 Week” value [1, 5] was 14.5 ± 3.0 µg/mL, the “mALB, 24 Week” value ([1]; group D, 5 mg/kg per day gavage, 5 mg/kg/day) was 19.8 ± 4.3 µg/mL and the “mALB, 26 Week” value [1, 5] was 19.9 ± 7.4 µg/mL. For the same molecule, the “mALB, 32 Week” value [1, 5] was 105.5 ± 38.9 µg/mL, the “mALB, 35 Week” value [1, 5] was 52.8 ± 23.4 µg/mL and the death of rats (STZ diabetic rats [3]) was “all died”.
In the case of CCC1NC(=O)c2cc(S(N)(=O)=O)c(Cl)cc2N1 (centres unmarked) [quinethazone], the “mALB, urine microalbumin value” value ([1]; 1 mg/kg group) is reported as 114.6 ± 45.3 µg/mL.
COC(=O)C1=C(C)NC(C)=C(C(=O)OCCN(C)Cc2ccccc2)C1c1cccc([N+](=O)[O-])c1 (centres unmarked) [nicardipine] was tested, and the “mALB, urine microalbumin value” value ([1]; 5 mg/kg group) was 55.4 ± 25.6 µg/mL.
For O=C(NCCO[N+](=O)[O-])c1cccnc1 [Nicorandil], the “mALB, urine microalbumin value” value ([1]; 0.5 mg/kg group) was 78.2 ± 35.1 µg/mL and the “effect on reducing the amount” value [1] was “significant effect”.
With Nc1cc(N2CCCCC2)nc(N)[n+]1[O-] [minoxidil] the “mALB, urine microalbumin value” value ([1]; 0.5 mg/kg group) was 130.4 ± 60.3 µg/mL.
